Assay results as given in patent US11529299B2, “Hair care compositions comprising a 2-pyridinol-n-oxide material and an iron chelator” (The Procter & Gamble Company, priority 2017, dated 2022).

Experiments:
Malassezia furfur = test: Minimum inhibitory concentration (MIC), growth inhibition of Malassezia by culture optical density; format: cell-based; settings: material alone, OD <= 20% of untreated control, 33° C., two days, M. Dixon medium pH 5.5, average of two replicates; for MIC: Malassezia furfur, 48 h
Protocol: To measure the growth inhibition properties of test materials against Malassezia, the following protocol is followed. The Malassezia furfur is cultured in 50 ml M. […] The pH is adjusted to 5.5 using 1N HCl. The media is autoclaved. Starting cultures are prepared by incubating freezer stocks with shaking at 33° C. The inoculum of Malassezia cells is 5.5×10^5 cfu/ml. Cells are incubated at 33° C. for two days. After the two day incubation optical density is read and background subtracted. MIC values are determined by averaging the results from two replicate experiments.

M.Furfur 7892 cells = test: Modified Fractional Inhibitory Concentration (MFIC), anti-Malassezia activity of combinations; format: cell-based, Malassezia furfur; settings: titrated from 400 ppm; for MFIC: Table 3, chelator as Material #2 combined with the 2-pyridinol-N-oxide material at 1/2 its MIC; for Modified Fractional Inhibitory Concentration (MFIC): lowest concentration of Material #2 inhibiting growth with Material #1 (1-hydroxy-4-methyl-6-(2,4,4-trimethylpentyl)-2-pyridone monoethanolamine salt) at 1/2 its MIC, 33° C., 2 days
Protocol: A Modified Fractional Inhibitory Concentration (MFIC) is used to determine the combinatorial effects of two chemicals on anti-Malassezia activity in a tissue culture setting. […] I. […] Low levels of M.Furfur 7892 cells are inoculated into each well of a 96 well plate. • 3. […] Plates are incubated at 33° C. for 2 days. • 6. Optical densities (OD's) are then determined using a spectrophotometer. II. […] Inhibition of growth is determined if the culture optical density is less than or equal to ⅕ (20%) of the culture optical density of the untreated control • 2.

[1] = from NIST Standard Reference Database 46; cited from earlier work

SMILES	MIC (Malassezia furfur)	MFIC (M.Furfur 7892 cells)	Log K1 (iron binding affinity) [1]	Modified Fractional Inhibitory Concentration (MFIC) (M.Furfur 7892 cells)	Minimum inhibitory concentration (MIC) (Malassezia furfur)
Cc1cc(CC(C)CC(C)(C)C)n(O)c(=O)c1.NCCO (centres unmarked) [1-hydroxy-4-methyl-6-(2,4,4-trimethylpentyl)-2-pyridone monoethanolamine salt]	25 µg/mL	–	–	–	–
O=C(O)CC(O)(CC(=O)O)C(=O)O [Citric Acid]	–	>400 ppm	11	–	–
CC(=O)N(O)CCCCCNC(=O)CCC(=O)N(O)CCCCCNC(=O)CCC(=O)N(O)CCCCCN [Desferrioxamine]	> 400 µg/mL	5 ppm	31	5 ppm	–
O=C(O)CN(CCN(CC(=O)O)CC(=O)O)CCN(CC(=O)O)CC(=O)O [Diethylenetriaminepentaacetic acid]	–	37 ppm	28	37 ppm	>400 ppm
O=P(O)(O)CN(CCN(CP(=O)(O)O)CP(=O)(O)O)CCN(CP(=O)(O)O)CP(=O)(O)O [Diethylenetriaminepentakis(methylenephosphonic acid)]	–	50 ppm	23	50 ppm	>400 ppm
CC(C(=O)O)N(CC(=O)O)CC(=O)O (centres unmarked) [Methylglycine diacetic acid (MGDA), Methylglycine diacetic acid]	–	>400 ppm	16	–	–
